Results reported in patent US20060110401A1, “Mixture of peptides from c and ns3 proteins of the hepatitis c virus and applications thereof” (priority 2002, published 2006).
Like-named read-outs stand apart in the source and are kept apart here. Residues, ends and D or L forms follow the SMILES beside them.

Legend:
DRB4 = assay: DRB4
Source text: (§1) Table printed on a drawing sheet, Figure 2
Where the first naming reader finds the target: head: DRB4

DRB3 = assay: DRB3
DR3 = assay: DR3
Source text: as §1
Where the first naming reader finds the target: head: DR3

DP402 = assay: DP402
DRB5 = assay: DRB5
DR15 = assay: DR15
DR11 = assay: DR11
Source text: as §1
Where the first naming reader finds the target: head: DR11

DR4 = assay: DR4
HLA-DR1 (DRB1*0101) = molecular target: T1, HLA-DR1 (DRB1*0101) (Homo sapiens, UniProt P01903+P01911, A100R/D57E/F55L/F60I/F76Y/I96L/L162R/M171V/P40L/Q125E/R42F/V115G/Y59C); assay: biochemical; assay type: binding; conditions: for IC50: DRB1*0101; for affinity for HLA-DR1 (in words): legend of FIG. 4
T1 construct: endogenous in cells; host or cells: homozygous EBV-transformed human B lymphocyte lines; immunopurified with antibody L243

HLA-DR15 (DRB1*1501) = molecular target: T2, HLA-DR15 (DRB1*1501) (Homo sapiens, UniProt P01903+P01911); assay: biochemical; assay type: binding; conditions: DRB1*1501; read-out: binds with good affinity to DR15
T2 construct: endogenous in cells; host or cells: homozygous EBV-transformed human B lymphocyte lines; immunopurified with antibody L243

HLA-DR7 (DRB1*0701) = HLA-DR7 (DRB1*0701) (Homo sapiens, UniProt P01903+P01911, A100R/A102G/A103Q/D57E/D86V/E43K/F76Y/K127E/L162R/M171V/P40G/Q125H/Q99D/R33Q/R42Y/R54Q/S133A/S66F/T210M/V115G/Y107V/Y59L/Y89S); assay: biochemical; assay type: binding; conditions: read-out: binds with good affinity to DR7
HLA-DR11 (DRB1*1101) = HLA-DR11 (DRB1*1101) (Homo sapiens, UniProt P01903+P01911, A100R/A169T/A87E/I96F/K41T/L162R/M171V/P40S/Q125H/Q178H/Q39Y/Q99D/R42S/S66Y/T262R/V115G/W38E); assay: biochemical; assay type: binding; conditions: read-out: binds with good affinity to DR11
DP401 = assay: DP401
DR1 = assay: DR1
HLA-DRB5 (DRB5*0101) = molecular target: T3, HLA-DRB5 (DRB5*0101) (Homo sapiens, UniProt P01903+Q30154); assay: biochemical; assay type: binding; conditions: read-out: binds with good affinity to DRB5
T3 construct: endogenous in cells; host or cells: homozygous EBV-transformed human B lymphocyte lines; immunopurified with antibody L243

DR7 = assay: DR7
HLA-DR4 (DRB1*0401) = molecular target: T4, HLA-DR4 (DRB1*0401) (Homo sapiens, UniProt P01903+P01911, A100K/A169T/F76Y/I96L/K127E/L162R/M171V/N62H/P40V/Q125Y/R42H/S133A/S149N/S66Y/V115G/V209L/W38E); assay: biochemical; assay type: binding; conditions: read-out: binds with good affinity to DR4
T4 construct: endogenous in cells; host or cells: homozygous EBV-transformed human B lymphocyte lines; immunopurified with antibody L243

HLA-DRB4 (DRB4*0101) = molecular target: T5, HLA-DRB4 (DRB4*0101) (Homo sapiens, UniProt P01903+P13762, G164S); assay: biochemical; assay type: binding; conditions: read-out: binds with good affinity to DRB4
T5 construct: endogenous in cells; host or cells: homozygous EBV-transformed human B lymphocyte lines; immunopurified with antibody L243

HLA-DR13 (DRB1*1301) = HLA-DR13 (DRB1*1301) (Homo sapiens, UniProt P01903+P01911, A100E/A169T/K41T/L162R/M171V/P40S/Q125H/Q178H/Q39Y/Q99D/R42S/S66N/T262R/W38E/Y61H); assay: biochemical; assay type: binding; conditions: read-out: binds with good affinity to DR13
DR13 = assay: DR13
Source text: as §1
Where the first naming reader finds the target: head: DR13

[1] = system: T lymphocytes derived from PBMCs from patients chronically infected with HCV; assay type: cell-based, human; conditions: supernatant 48 h, —: not detected
[2] = competition with biotinylated tracer HA 306-318, read-out: IC50, binding to HLA-DR1
[3] = read-out: binds with good affinity to DR1

HLA-DR11 (DRB1*1101), sequence (P01903 26-254 limits assumed, other chains not shown): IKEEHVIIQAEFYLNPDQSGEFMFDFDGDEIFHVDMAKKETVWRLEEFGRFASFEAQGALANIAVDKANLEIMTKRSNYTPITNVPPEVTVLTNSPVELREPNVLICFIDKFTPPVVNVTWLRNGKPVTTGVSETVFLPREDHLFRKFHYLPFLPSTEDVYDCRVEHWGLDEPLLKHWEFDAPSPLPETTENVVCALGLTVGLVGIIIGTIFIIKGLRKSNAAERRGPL

| SMILES | IC50 (DRB4) [µM] | IC50 (DRB3) [µM] | IC50 (DR3) [µM] | IC50 (DP402) [µM] | IC50 (DRB5) [µM] | IC50 (DR15) [µM] | IC50 (DR11) [µM] | IC50 (DR4) [µM] | IC50 (HLA-DR1 (DRB1*0101); [2]) [µM] | affinity for HLA-DR1 (in words) (HLA-DR1 (DRB1*0101)) | IC50 (HLA-DR15 (DRB1*1501)) [µM] | IC50 (HLA-DR7 (DRB1*0701)) [µM] | IC50 (HLA-DR11 (DRB1*1101)) [µM] | IC50 (DP401) [µM] | IC50 (DR1) [µM] | IC50 (HLA-DRB5 (DRB5*0101)) [µM] | IC50 (DR7) [µM] | IC50 (HLA-DR1 (DRB1*0101); [3]) [µM] | IC50 (HLA-DR4 (DRB1*0401)) [µM] | IC50 (HLA-DRB4 (DRB4*0101)) [µM] | also measured |
| --- | --- | --- | --- | --- | --- | --- | --- | --- | --- | --- | --- | --- | --- | --- | --- | --- | --- | --- | --- | --- | --- |
| CC(C)C[C@H](NC(=O)[C@H](Cc1c[nH]c2ccccc12)NC(=O)CNC(=O)[C@H](C)NC(=O)[C@@H](N)Cc1c[nH]c2ccccc12)C(=O)N[C@@H](CC(C)C)C(=O)N[C@@H](CO)C(=O)N1CCC[C@H]1C(=O)N[C@@H](CCCNC(=N)N)C(=O)NCC(=O)N[C@@H](CO)C(=O)N[C@@H](CCCNC(=N)N)C(=O)N1CCC[C@H]1C(=O)N[C@@H](CO)C(=O)N[C@@H](Cc1c[nH]c2ccccc12)C(=O)O [3C 93-107] (H-WAGWLLSPRGSRPSW-OH; N-terminus and C-terminus assumed) | 5 | > 100 | 50 | > 100 | 2.57 | 27.5 | 0.087 | 60 | 6.33 | low affinity |  |  |  |  |  |  |  |  |  |  |  |
| CC[C@H](C)[C@H](NC(=O)[C@H](CCC(N)=O)NC(=O)[C@@H](NC(=O)[C@H](CCC(=O)O)NC(=O)CNC(=O)[C@H](CCC(=O)O)NC(=O)[C@@H](NC(=O)[C@H](CCC(N)=O)NC(=O)[C@H](CC(N)=O)NC(=O)[C@@H](N)CCCCN)C(C)C)C(C)C)C(=O)N[C@H](C(=O)N[C@@H](CO)C(=O)N[C@H](C(=O)N[C@@H](C)C(=O)N[C@@H](C)C(=O)N[C@@H](CCC(N)=O)C(=O)N[C@H](C(=O)N[C@@H](Cc1ccccc1)C(=O)N[C@@H](CC(C)C)C(=O)N[C@@H](C)C(=O)N[C@H](C(=O)O)[C@@H](C)O)[C@@H](C)O)[C@@H](C)O)C(C)C [10N 1052-1072] | 0.4 | 10 | 2.25 | 1.18 | 0.019 | 0.3 | 0.2 | 0.024 |  |  | < 1 | < 1 | < 1 | 2.03 | 0.4 | < 1 | 0.007 | < 1 | < 1 | < 1 |  |
| CC[C@H](C)[C@H](NC(=O)[C@@H](NC(=O)[C@H](CC(=O)O)NC(=O)[C@H](C)NC(=O)[C@H](Cc1c[nH]cn1)NC(=O)[C@H](CCCNC(=N)N)NC(=O)[C@@H](NC(=O)[C@@H](NC(=O)[C@H](CC(C)C)NC(=O)[C@H](Cc1ccc(O)cc1)NC(=O)[C@H](CC(C)C)NC(=O)[C@H](CC(=O)O)NC(=O)[C@H](CO)NC(=O)[C@@H](N)CO)C(C)C)[C@@H](C)O)C(C)C)C(=O)N1CCC[C@H]1C(=O)N[C@H](C(=O)N[C@@H](CCCNC(=N)N)C(=O)N[C@@H](CCCNC(=N)N)C(=O)N[C@@H](CCCNC(=N)N)C(=O)NCC(=O)N[C@@H](CC(=O)O)C(=O)N[C@@H](CO)C(=O)N[C@@H](CCCNC(=N)N)C(=O)NCC(=O)N[C@@H](CO)C(=O)N[C@@H](CC(C)C)C(=O)N[C@@H](CC(C)C)C(=O)O)C(C)C [13N 1127-1153] | 2.5 |  |  | 8.71 | 0.5 |  | 0.017 | 3.5 |  |  |  | < 1 | < 1 |  | 0.7 | < 1 | 0.017 | < 1 |  |  | IC50 (HLA-DR13 (DRB1*1301)): < 1 µM; IC50 (DR13): 0.3 µM |
| CC[C@H](C)[C@H](NC(=O)CNC(=O)[C@@H](NC(=O)[C@H](C)NC(=O)[C@H](Cc1c[nH]cn1)NC(=O)CN)C(C)C)C(=O)N[C@@H](Cc1ccccc1)C(=O)N[C@@H](CCCNC(=N)N)C(=O)N[C@@H](C)C(=O)N[C@@H](C)C(=O)N[C@H](C(=O)N[C@@H](CS)C(=O)N[C@H](C(=O)N[C@@H](CCCNC(=N)N)C(=O)NCC(=O)N[C@H](C(=O)N[C@@H](C)C(=O)N[C@@H](CCCCN)C(=O)N[C@@H](C)C(=O)N[C@H](C(=O)N[C@@H](CC(=O)O)C(=O)N1CCC[C@H]1C(=O)O)C(C)C)C(C)C)[C@@H](C)O)C(C)C [15N 1174-1195] (H-GHAVGIFRAAVCTRGVAKAVDP-OH; N-terminus and C-terminus assumed) |  |  | 30 | 2.98 | 0.02 | 0.09 |  | 0.03 | 0.003 | high affinity | < 1 |  | < 1 |  |  | < 1 |  | < 1 | < 1 | < 1 | IL10 ([1]; patient 067): 55 pg/mL; IL10 ([1]; patient 078): 43 pg/mL; IC50 (DR13): 10 µM |
| CC(C)C[C@H](NC(=O)[C@H](Cc1c[nH]cn1)NC(=O)[C@H](C)NC(=O)[C@@H](NC(=O)[C@H](CCC(N)=O)NC(=O)[C@H](Cc1ccccc1)NC(=O)[C@H](CO)NC(=O)[C@H](CCC(N)=O)NC(=O)[C@@H]1CCCN1C(=O)[C@@H](NC(=O)[C@@H](NC(=O)[C@@H]1CCCN1C(=O)[C@@H]1CCCN1C(=O)[C@H](CO)NC(=O)[C@H](CO)NC(=O)[C@H](CC(N)=O)NC(=O)[C@H](CC(=O)O)NC(=O)[C@@H](NC(=O)[C@H](Cc1ccccc1)NC(=O)[C@@H](NC(=O)[C@@H]1CCCN1C(=O)[C@H](CO)NC(=O)[C@@H](N)CCCNC(=N)N)C(C)C)[C@@H](C)O)C(C)C)C(C)C)C(C)C)C(=O)N[C@@H](Cc1c[nH]cn1)C(=O)N[C@@H](C)C(=O)N1CCC[C@H]1C(=O)N[C@H](C(=O)NCC(=O)N[C@@H](CO)C(=O)NCC(=O)N[C@@H](CCCCN)C(=O)N[C@@H](CO)C(=O)N[C@H](C(=O)N[C@@H](CCCCN)C(=O)O)[C@@H](C)O)[C@@H](C)O [17N 1206-1239] | 3.88 | 5.25 |  | 14.6 |  | 10 | 0.55 | 0.425 |  |  |  | < 1 | < 1 | 64.8 | 0.055 | < 1 |  | < 1 | < 1 |  |  |
| CC[C@H](C)[C@H](N)C(=O)N[C@@H](CCC(=O)O)C(=O)N[C@@H](CCC(=O)O)C(=O)N[C@H](C(=O)N[C@@H](C)C(=O)N[C@@H](CC(C)C)C(=O)N[C@@H](CO)C(=O)N[C@H](C(=O)N[C@H](C(=O)NCC(=O)N[C@@H](CCC(=O)O)C(=O)N[C@H](C(=O)N1CCC[C@H]1C(=O)N[C@@H](Cc1ccccc1)C(=O)N[C@@H](Cc1ccc(O)cc1)C(=O)NCC(=O)N[C@@H](CCCCN)C(=O)N[C@@H](C)C(=O)N[C@H](C(=O)N1CCC[C@H]1C(=O)N[C@@H](CC(C)C)C(=O)N[C@@H](CCC(=O)O)C(=O)N[C@H](C(=O)N[C@H](C(=O)N[C@@H](CCCCN)C(=O)NCC(=O)O)[C@@H](C)CC)C(C)C)[C@@H](C)CC)[C@@H](C)CC)[C@@H](C)O)[C@@H](C)O)C(C)C [22N 1362-1387] (H-IEEVALSTTGEIPFYGKAIPLEVIKG-OH; N-terminus and C-terminus assumed) | 4 | 32.5 | 21.2 | 10.3 | 0.2 | 0.425 | 3 | 1.62 |  |  | < 1 | < 1 |  | 8.01 |  | < 1 | 0.02 | < 1 |  |  |  |
